From ChEMBL document CHEMBL6178006, “Novel Spirocyclic WRN Helicase Inhibitors for Treating Cancer” (ACS Med Chem Lett, 2025)

Target: Bifunctional 3'-5' exonuclease/ATP-dependent helicase WRN (Homo sapiens, UniProt Q14191)
Assay: Inhibition of WRN helicase (500 to 942 residues)(unknown origin) using fluor/quencher-labeled forked double-stranded DNA substrate assessed as decrease in helicase unwinding activity preincubated for 1 hr followed by substrate addition measured after 1 hr in presence of ATP by fluorescence based assay

Chain of Bifunctional 3'-5' exonuclease/ATP-dependent helicase WRN (Q14191 whole entry, the tested form may be a part): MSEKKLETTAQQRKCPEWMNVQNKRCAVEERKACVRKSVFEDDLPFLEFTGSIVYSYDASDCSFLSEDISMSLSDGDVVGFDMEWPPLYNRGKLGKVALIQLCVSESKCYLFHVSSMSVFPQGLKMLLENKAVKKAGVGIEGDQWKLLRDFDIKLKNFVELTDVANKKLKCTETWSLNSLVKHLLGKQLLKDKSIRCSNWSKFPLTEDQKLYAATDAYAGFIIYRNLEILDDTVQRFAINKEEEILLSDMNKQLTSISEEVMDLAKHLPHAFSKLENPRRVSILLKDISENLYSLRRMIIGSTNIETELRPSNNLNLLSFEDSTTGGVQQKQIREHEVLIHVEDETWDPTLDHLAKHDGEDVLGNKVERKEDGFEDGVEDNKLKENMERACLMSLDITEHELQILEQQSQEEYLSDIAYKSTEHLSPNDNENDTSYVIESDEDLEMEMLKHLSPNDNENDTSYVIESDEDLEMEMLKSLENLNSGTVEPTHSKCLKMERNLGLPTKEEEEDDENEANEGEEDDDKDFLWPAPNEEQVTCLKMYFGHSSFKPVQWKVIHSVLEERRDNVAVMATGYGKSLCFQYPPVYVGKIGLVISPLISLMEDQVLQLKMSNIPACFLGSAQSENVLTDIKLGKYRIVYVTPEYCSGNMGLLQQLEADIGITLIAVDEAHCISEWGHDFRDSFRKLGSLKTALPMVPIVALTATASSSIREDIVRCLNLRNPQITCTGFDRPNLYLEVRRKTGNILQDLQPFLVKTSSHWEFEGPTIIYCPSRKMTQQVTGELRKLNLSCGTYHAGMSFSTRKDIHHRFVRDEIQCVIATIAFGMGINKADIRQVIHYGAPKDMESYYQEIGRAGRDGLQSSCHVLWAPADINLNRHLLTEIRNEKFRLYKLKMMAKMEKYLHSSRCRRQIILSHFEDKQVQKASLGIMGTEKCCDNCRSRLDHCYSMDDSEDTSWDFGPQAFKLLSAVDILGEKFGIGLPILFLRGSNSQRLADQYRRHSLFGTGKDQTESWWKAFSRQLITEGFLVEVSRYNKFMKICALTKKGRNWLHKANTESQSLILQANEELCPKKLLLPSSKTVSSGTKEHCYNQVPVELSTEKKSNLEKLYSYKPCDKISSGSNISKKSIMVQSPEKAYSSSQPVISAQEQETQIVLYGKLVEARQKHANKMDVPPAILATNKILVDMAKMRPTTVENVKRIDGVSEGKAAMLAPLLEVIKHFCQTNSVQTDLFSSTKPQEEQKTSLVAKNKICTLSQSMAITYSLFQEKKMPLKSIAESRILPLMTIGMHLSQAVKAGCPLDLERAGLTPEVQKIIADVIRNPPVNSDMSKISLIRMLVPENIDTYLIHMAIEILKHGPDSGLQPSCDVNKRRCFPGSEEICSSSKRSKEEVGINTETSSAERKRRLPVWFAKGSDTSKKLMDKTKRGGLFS

Row | IC50 [nM] | Compound
1 | 1.9 | CC1CC2(CCN(C(=O)c3ncccc3O)CC2)c2c1n(CC(=O)Nc1ccc(C(F)(F)F)cc1)c1nc(C3=CCOCC3)nn1c2=O (configuration not stated)
2 | 2 | CC(=O)N1CC=C(c2nc3n(CC(=O)Nc4ccc(C(F)(F)F)cc4Cl)c4c(c(=O)n3n2)C2(CCN(C(=O)c3ncccc3O)CC2)CC4C)CC1 (configuration not stated)
